The results in this text go back to PubChem BioAssay AID1311 (NMMLSC, 2008).

The subject of this test is Yeast Sic1MUS-GFP degradation, Cln2 overexpression, flow cytometry. As to the kind of experiment: yeast Sic1MUS-GFP turnover with Cln2 overexpressed – flow cytometry, Cln2 overexpression, Sic1MUS mutant, mechanism study for 26S proteasome disassembly project, confirmation (AID 1311). As to conditions: hits give high values.

Where a SMILES comes first, the peptide text is derived from it. The star is where a group is joined. Cbz = O=C(OCc1ccccc1)*

In the case of `CC(=O)N1C(=O)C(=C2C=C(C)OC(C)=C2)c2ccccc21`, the percent GFP remaining is 2.25%.
Consider `CC(C)C[C@@H](C=O)NC(=O)[C@H](CC(C)C)NC(=O)[C@H](CC(C)C)NC(=O)OCc1ccccc1` (Cbz-Leu-Leu-Leu-aldehyde), for which the percent GFP remaining was 4.05%.
